pIC50: −log10 of the molar value.
The compounds below were run against T1, FAAH (Rattus norvegicus, UniProt P97612) (assay: FAAH inhibition, rat brain membrane homogenate assay). Conditions: rat brain homogenate; average activity; read-out: Rat Brain Extract FAAH IC50.
T1 construct: For the assay of FAAH activity in rat brain membrane (RBM) homogenates; tissue Charles River (animals); host or cells: rat whole brain, membrane fraction
T1 sequence (P97612 1-579): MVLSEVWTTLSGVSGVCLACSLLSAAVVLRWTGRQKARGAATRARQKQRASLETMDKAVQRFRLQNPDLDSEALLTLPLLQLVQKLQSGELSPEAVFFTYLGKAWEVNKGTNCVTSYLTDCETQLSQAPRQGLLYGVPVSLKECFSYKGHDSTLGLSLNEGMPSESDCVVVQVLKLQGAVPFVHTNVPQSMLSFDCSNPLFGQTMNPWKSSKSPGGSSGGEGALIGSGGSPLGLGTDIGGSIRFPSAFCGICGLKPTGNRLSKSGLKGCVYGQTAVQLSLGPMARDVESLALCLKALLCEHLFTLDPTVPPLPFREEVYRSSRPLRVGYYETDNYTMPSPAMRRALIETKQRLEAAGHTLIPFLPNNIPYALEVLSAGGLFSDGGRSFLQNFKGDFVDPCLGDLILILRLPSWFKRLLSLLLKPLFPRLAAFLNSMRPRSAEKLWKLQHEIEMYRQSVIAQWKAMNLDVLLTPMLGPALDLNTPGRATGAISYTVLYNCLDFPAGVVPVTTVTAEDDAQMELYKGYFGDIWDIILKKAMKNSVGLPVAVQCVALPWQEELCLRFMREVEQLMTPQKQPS
Format: biochemical
Procedure, shortened: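 Membranes from female CD rat brain (Tris pH 7.4/EDTA/MgCl2 resuspension), 7 μg protein, incubated 10 min at 37 °C with [3H]anandamide plus […] unlabelled AEA, 1 mg/mL fatty acid-free BSA, Tris-HCl pH 6.5, 1 mM EDTA, 1% DMSO. [3H]ethanolamine separated by chloroform/methanol extraction or charcoal filtration, scintillation-counted; IC50 derived.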
In the case of `COc1cc(NC(=O)C(=O)c2c(C)n(Cc3ccc(F)cn3)c3ccc(C)cc23)ccn1` [Compound 85, 2-(1-((5-fluoropyridin-2-yl)methyl)-2,5-dimethyl-1H-indol-3-yl)-N-(2-methoxypyridin-4-yl)-2-oxoacetamide], the pIC50 was > 7.00. In the case of `COc1cc(NC(=O)C(=O)c2c(C)n(Cc3ccc(Cl)cc3)c3cc(OC)c(Cl)cc23)ccn1` [Compound 80, 2-(5-chloro-1-(4-chlorobenzyl)-6-methoxy-2-methyl-1H-indol-3-yl)-N-(2-methoxypyridin-4-yl)-2-oxoacetamide], the pIC50 was > 7.00. In the case of `COc1cc(NC(=O)C(=O)c2c(C)n(Cc3ccc(Cl)cc3)c3ccc(C(=O)O)cc23)ccn1` [Compound 4, 1-(4-chlorobenzyl)-3-(2-(2-methoxypyridin-4-ylamino)-2-oxoacetyl)-2-methyl-1H-indole-5-carboxylic acid], the pIC50 was 5.00 to 6.00. For `COc1cc(NC(=O)C(=O)c2c(C)n(Cc3ccc(Cl)cc3)c3cccnc23)ccn1` [Compound 3, 2-(1-(4-chlorobenzyl)-2-methyl-1H-pyrrolo[3,2-b]pyridin-3-yl)-N-(2-methoxypyridin-4-yl)-2-oxoacetamide], the pIC50 was > 7.00. `COc1ccc2c(c1)c(C(=O)C(=O)Nc1ccnc(OC)c1)c(C)n2Cc1ncc(Cl)cc1F` [Compound 87, 2-(1-((5-chloro-3-fluoropyridin-2-yl)methyl)-5-methoxy-2-methyl-1H-indol-3-yl)-N-(2-methoxypyridin-4-yl)-2-oxoacetamide] was tested, and the pIC50 was > 7.00. With `COc1cc(NC(=O)C(=O)c2c(C)n(Cc3ccc(Cl)cn3)c3cc(Cl)c(C)cc23)ccn1` [Compound 94, 2-(6-chloro-1-((5-chloropyridin-2-yl)methyl)-2,5-dimethyl-1H-indol-3-yl)-N-(2-methoxypyridin-4-yl)-2-oxoacetamide] the pIC50 was > 7.00. `COc1cc(NC(=O)C(=O)c2c(C)n(Cc3ccc(Cl)cc3Cl)c3cc(F)c(OC)cc23)ccn1` [Compound 92, 2-(1-(2,4-dichlorobenzyl)-6-fluoro-5-methoxy-2-methyl-1H-indol-3-yl)-N-(2-methoxypyridin-4-yl)-2-oxoacetamide] was tested, and the pIC50 was > 7.00. For `COc1ccc2c(c1)c(C(=O)C(=O)Nc1ccnc(OC)c1)c(C)n2Cc1ncccn1` [Compound 83, 2-(5-methoxy-2-methyl-1-(pyrimidin-2-ylmethyl)-1H-indol-3-yl)-N-(2-methoxypyridin-4-yl)-2-oxoacetamide], the pIC50 was 5.00 to 6.00. With `COc1ccc2c(c1)c(C(=O)C(=O)Nc1ccnc(OC)c1)c(C)n2Cc1ccc(Cl)nn1` [Compound 86, 2-(1-((6-chloropyridazin-3-yl)methyl)-5-methoxy-2-methyl-1H-indol-3-yl)-N-(2-methoxypyridin-4-yl)-2-oxoacetamide] the pIC50 was > 7.00. For `COc1ccc2c(c1)c(C(=O)C(=O)Nc1ccnc(OC)c1)c(C)n2Cc1ccc(C)cn1` [Compound 84, 2-(5-methoxy-2-methyl-1-((5-methylpyridin-2-yl)methyl)-1H-indol-3-yl)-N-(2-methoxypyridin-4-yl)-2-oxoacetamide], the pIC50 was > 7.00. For `COc1ccc2c(c1)c(C(=O)C(=O)Nc1ccnc(OC)c1)c(C)n2Cc1ccc(Cl)cn1` [Compound 79, 2-(1-((5-chloropyridin-2-yl)methyl)-5-methoxy-2-methyl-1H-indol-3-yl)-N-(2-methoxypyridin-4-yl)-2-oxoacetamide], the pIC50 was > 7.00. With `COc1cc(NC(=O)C(=O)c2c(C)n(Cc3ccc(Cl)cc3)c3cc(Cl)c(C)cc23)ccn1` [Compound 93, 2-(6-chloro-1-(4-chlorobenzyl)-2,5-dimethyl-1H-indol-3-yl)-N-(2-methoxypyridin-4-yl)-2-oxoacetamide] the pIC50 was > 7.00. With `COc1ccc2c(c1)c(C(=O)C(=O)Nc1ccnc(OC)c1)c(C)n2Cc1ncc(Cl)cc1Cl` [Compound 82, 2-(1-((3,5-dichloropyridin-2-yl)methyl)-5-methoxy-2-methyl-1H-indol-3-yl)-N-(2-methoxypyridin-4-yl)-2-oxoacetamide] the pIC50 was > 7.00. With `COc1cc(NC(=O)C(=O)c2c(C)n(Cc3ccc(Cl)cc3)c3cc(F)c(C)cc23)ccn1` [Compound 89, 2-(1-(4-chlorobenzyl)-6-fluoro-2,5-dimethyl-1H-indol-3-yl)-N-(2-methoxypyridin-4-yl)-2-oxoacetamide] the pIC50 was > 7.00. For `COc1cc(NC(=O)C(=O)c2c(C)n(Cc3ccc(Cl)cn3)c3cc(F)c(C)cc23)ccn1` [Compound 90, 2-(1-((5-chloropyridin-2-yl)methyl)-6-fluoro-2,5-dimethyl-1H-indol-3-yl)-N-(2-methoxypyridin-4-yl)-2-oxoacetamide], the pIC50 was > 7.00. For `COc1ccc2c(c1)c(C(=O)C(=O)Nc1ccnc(OC)c1)c(C)n2Cc1ncc(F)cc1F` [Compound 81, 2-(1-((3,5-difluoropyridin-2-yl)methyl)-5-methoxy-2-methyl-1H-indol-3-yl)-N-(2-methoxypyridin-4-yl)-2-oxoacetamide], the pIC50 was > 7.00. With `COc1cc(NC(=O)C(=O)c2c(C)n(Cc3ccc(Cl)cc3F)c3cc(F)c(OC)cc23)ccn1` [Compound 91, 2-(1-(4-chloro-2-fluorobenzyl)-6-fluoro-5-methoxy-2-methyl-1H-indol-3-yl)-N-(2-methoxypyridin-4-yl)-2-oxoacetamide] the pIC50 was > 7.00. Compound `COc1ccc2c(c1)c(C(=O)C(=O)Nc1ccnc(OC)c1)c(C)n2Cc1cccnc1` [Compound 78, 2-(5-methoxy-2-methyl-1-(pyridin-3-ylmethyl)-1H-indol-3-yl)-N-(2-methoxypyridin-4-yl)-2-oxoacetamide] has a pIC50 of 6.00 to 7.00.
